# Test results published in paper PMC9099123 (Clinical and Translational Science, 2022).
# Values joined by “and” are separate entries in the source; they are usually repeats but may differ in a detail not shown here. Equal values may be shown once.
# Key:
# [1] = Urine PK of digoxin in men with mCRPC; assay type: in vivo, human; settings: for CL renal: male, human, oral, CLR; for CL renal / Aelast%, GLSM / Aelast%, Mean ± SD / Aelast%, Median (range) / Aelast, Median (range): urine; for Aelast, Mean ± SD: urine up to 24 h
# [2] = Plasma PK of digoxin and rosuvastatin; settings: for AUC(0-inf) / AUC(0-t) / Cmax / Vd/F / half-life: male, human, in vivo; for AUC(0-inf): AUCinf; for AUC(0-t): AUClast; for Vd/F: Vz/F; for half-life: t½
# P-gp = assay: Effect of enzalutamide on PK of digoxin; assay type: in vivo, human
# Safety and tolerability = assay type: in vivo, human; settings: for TEAEs considered related to the drug: single dose in cocktail, days 1 and 64
# [3] = Plasma PK of enzalutamide and N-desmethyl enzalutamide in men with mCRPC
# CYP3A4 [4] = settings: human hepatocytes; ref data on file; cited from earlier work
# CYP2C9 = settings: previous clinical DDI studies, cited from earlier work
# CYP2C19 = settings: previous clinical DDI studies, cited from earlier work
# CYP3A4 [5] = settings: previous clinical DDI studies, cited from earlier work
# clinical = settings: male, human, plasma
# BCRP = assay: Effect of enzalutamide on PK of rosuvastatin; assay type: in vivo, human
# [6] = Enzalutamide + cocktail (day 64)
# [7] = GLSM, plasma, Enzalutamide + cocktail (day 64)
# [8] = Mean ± SD, plasma, Cocktail (day 1)
# [9] = Median (range), plasma, Cocktail (day 1)
# [10] = Mean ± SD, plasma, Enzalutamide + cocktail (day 64)
# [11] = Median (range), plasma, Enzalutamide + cocktail (day 64)
# [12] = plasma, Enzalutamide + cocktail (day 64)
# [13] = digoxin co-administered with enzalutamide versus taken alone
# [14] = digoxin plasma, day 64 vs day 1
# [15] = following enzalutamide, 2 patients
# [16] = rosuvastatin co-administered with enzalutamide versus taken alone
# [17] = rosuvastatin plasma, day 64 vs day 1
smiles,measurement,setting,value
C[C@H]1O[C@@H](O[C@H]2[C@@H](O)C[C@H](O[C@H]3[C@@H](O)C[C@H](O[C@H]4CC[C@@]5(C)[C@H](CC[C@@H]6[C@@H]5C[C@@H](O)[C@]5(C)[C@@H](C7=CC(=O)OC7)CC[C@]65O)C4)O[C@@H]3C)O[C@@H]2C)C[C@H](O)[C@@H]1O [digoxin],CL renal,"[1]; Mean ± SD, Cocktail (day 1)",105 mL/min
same,CL renal,"[1]; Mean ± SD, Enzalutamide + cocktail (day 64)",81.7 mL/min
same,CL renal,"[1]; Median (range), Cocktail (day 1)",100 mL/min
same,CL renal,"[1]; Median (range), Enzalutamide + cocktail (day 64)",78.3 mL/min
same,"Aelast, Mean ± SD",[1]; Cocktail (day 1),0.05 ± 0.01 mg
same,"Aelast, Mean ± SD",[1]; [6],0.05 ± 0.01 mg
same,"Aelast%, GLSM",[1]; Cocktail (day 1),19.4%
same,"Aelast%, Mean ± SD",[1]; Cocktail (day 1),20.1 ± 5.1%
same,"Aelast%, Median (range)",[1]; Cocktail (day 1),21.3 (9.2–31.5) %
same,"Aelast, Median (range)",[1]; Cocktail (day 1),0.05 (0.02–0.08) mg
same,"Aelast%, GLSM",[1]; [6],17.3%
same,"Aelast%, Mean ± SD",[1]; [6],18.2 ± 5.4%
same,"Aelast%, Median (range)",[1]; [6],17.9 (6.6–26.5) %
same,"Aelast, Median (range)",[1]; [6],0.04 (0.02–0.07) mg
same,"digoxin plasma concentrations, all patients","[2]; cocktail day 1, 0.5–168 h postdose, above LLOQ",> 10 pg/mL
same,AUC(0-inf),"[2]; GLSM, plasma, Cocktail (day 1)",24.1 ng·h/mL
same,AUC(0-inf),[2]; [7],32.1 ng·h/mL
same,AUC(0-inf),[2]; [8],24.6 ng·h/mL
same,AUC(0-inf),[2]; [9],25.1 ng·h/mL
same,AUC(0-t),"[2]; GLSM, plasma, Cocktail (day 1)",21.7 ng·h/mL
same,AUC(0-t),[2]; [7],28 ng·h/mL
same,AUC(0-t),[2]; [8],22.1 ng·h/mL
same,AUC(0-t),[2]; [10],28.7 ng·h/mL
same,AUC(0-t),[2]; [9],22.7 ng·h/mL
same,AUC(0-t),[2]; [11],27.1 ng·h/mL
same,Cmax,[2]; [9],1.47 ng/mL
same,Cmax,[2]; [11],1.62 ng/mL
same,Vd/F,[2]; [8],785 ± 138 L
same,Vd/F,[2]; [10],710 ± 114 L
same,Vd/F,[2]; [9],786 L
same,Vd/F,[2]; [11],727 L
same,half-life,[2]; [8],52.3 ± 8.2 h
same,half-life,[2]; [10],63.5 ± 9.5 h
same,half-life,[2]; [9],50.5 h
same,"CL/F, Mean ± SD","[2]; plasma, Cocktail (day 1)",10.6 ± 2.3 L/h
same,"CL/F, Median (range)","[2]; plasma, Cocktail (day 1)",9.9 (7.4–16.3) L/h
same,"tmax, Median (range)","[2]; plasma, Cocktail (day 1)",1.50 (0.50–3.00) h
same,"CL/F, Mean ± SD",[2]; [12],7.9 ± 1.7 L/h
same,"CL/F, Median (range)",[2]; [12],7.8 (4.6–11.6) L/h
same,"tmax, Median (range)",[2]; [12],1.00 (0.50–2.50) h
same,"Cmax, Mean ± SD","[2]; plasma, Enzalutamide + cocktail (day 64), enzalutamide 160 mg once daily",1.69 ± 0.384 ng/mL
same,increase in AUCinf (GLSM ratio),P-gp; [13],33%
same,increase in AUClast (GLSM ratio),P-gp; [13],29%
same,increase in Cmax (GLSM ratio),P-gp; [13],17%
same,"AUCinf, GLSM ratio (95% CI)",P-gp; [14],133.5 (125.3–142.2)
same,"AUClast, GLSM ratio (95% CI)",P-gp; [14],129.1 (121.0–137.7)
same,"Cmax, GLSM ratio (95% CI)","P-gp; digoxin plasma, enzalutamide + cocktail (day 64) vs cocktail (day 1)",117.0 (105.8–129.3)
same,decrease in Aelast%,"P-gp; digoxin urine, co-administered with enzalutamide",10%
same,"Aelast%, GLSM ratio (95% CI)","P-gp; digoxin urine, day 64 vs day 1",89.6 (79.1–101.6)
same,decrease in CLR,"P-gp; digoxin, co-administered with enzalutamide",22%
same,TEAEs considered related to the drug,Safety and tolerability,no TEAEs were considered to be related
CC1(C)C(=O)N(c2ccc(C#N)c(C(F)(F)F)c2)C(=S)N1c1ccc(C(N)=O)c(F)c1 [N‐desmethyl enzalutamide],Mean Ctrough,[3]; day 35,9100 ng/mL
same,"AUCtau, Mean ± SD",[3]; day 64,259000 ± 37900 ng·h/mL
same,"AUCtau, Median (range)",[3]; day 64,251 (189–327) h·µg/ml
same,"Cmax, Median (range)",[3]; day 64,12.1 (8.9–15.3) µg/ml
same,"Ctrough, Mean ± SD",[3]; day 64,11600 ng/mL and 11600 ± 1900 ng/mL
same,"Ctrough, Median (range)",[3]; day 64,11.7 (7.7–15.0) µg/ml
same,"Cmax, Mean ± SD","[3]; day 64, enzalutamide 160 mg oral once daily from day 8",12300 ± 1700 ng/mL
same,Mean Ctrough,[3]; day 68,11900 ng/mL
same,Mean Ctrough,[3]; day 71,12100 ng/mL
CNC(=O)c1ccc(N2C(=S)N(c3ccc(C#N)c(C(F)(F)F)c3)C(=O)C2(C)C)cc1F [enzalutamide],"CYP3A4 mRNA induction, % of positive control",CYP3A4 [4],95.9%
same,increase of CYP3A4 enzyme activity,CYP3A4 [4],up to 3.88 fold
same,increase of CYP3A4 mRNA levels,CYP3A4 [4],≤ 6.90 fold
same,Mean Ctrough,[3]; day 35,14100 ng/mL
same,"AUCtau, Median (range)",[3]; day 64,344 (210–435) h·µg/ml
same,"Ctrough, Mean ± SD",[3]; day 64,13900 ng/mL
same,"Ctrough, Median (range)",[3]; day 64,14.1 (8.3–19.4) µg/ml
same,"Ctrough, Mean ± SD","[3]; day 64, listed as Enzalutamide",13900 ± 2900 ng/mL
same,Mean Ctrough,[3]; day 68,14000 ng/mL
same,Mean Ctrough,[3]; day 71,14000 ng/mL
same,inducer class,CYP2C9; CYP2C9,moderate inducer
same,reduction of exposure of probe substrate,CYP2C9; CYP2C9 probe substrate,56%
same,inducer class,CYP2C19; CYP2C19,moderate inducer
same,reduction of exposure of probe substrate,CYP2C19; CYP2C19 probe substrate,70%
same,inducer class,CYP3A4 [5]; CYP3A4,strong inducer
same,reduction of exposure of probe substrate,CYP3A4 [5]; CYP3A4 probe substrate,86%
same,AUC,clinical; oral,333000 ± 57800 ng·h/mL
same,Cmax,clinical; oral,17200 ng/mL
same,Cmax,"clinical; po, 160 mg",17100 ± 2800 ng/mL
same,effect of enzalutamide on P-gp inhibition (class),"P-gp; GLSM ratios of digoxin less than two-fold, enzalutamide 160 mg once daily",mild
same,effect of enzalutamide on the PK of rosuvastatin (class),BCRP; 90% CI for Cmax and AUCinf GLSM ratios within 80–125%,no effect
same,tolerability,Safety and tolerability; enzalutamide alone and in combination with digoxin and rosuvastatin,well tolerated
same,patients with decreased white blood cell count (TEAE),Safety and tolerability; [15],8.3%
same,patients with dizziness (TEAE),Safety and tolerability; [15],8.3%
same,patients with urinary tract infection (TEAE),Safety and tolerability; [15],8.3%
same,patients with TEAEs considered potentially related to enzalutamide,"Safety and tolerability; one eosinophilia, two decreased white blood cell count, three patients",12.5%
same,deaths,Safety and tolerability; whole study,no deaths
same,serious TEAEs,Safety and tolerability; whole study,No serious TEAEs were reported
same,severity of all TEAEs,Safety and tolerability; whole study,mild
CC(C)c1nc(N(C)S(C)(=O)=O)nc(-c2ccc(F)cc2)c1/C=C/[C@@H](O)C[C@@H](O)CC(=O)O [rosuvastatin],AUC(0-inf),"[2]; GLSM, plasma, Cocktail (day 1)",62.7 ng·h/mL
same,AUC(0-inf),[2]; [7],56 ng·h/mL
same,AUC(0-inf),[2]; [8],69.5 ng·h/mL
same,AUC(0-inf),[2]; [10],59.7 ng·h/mL
same,AUC(0-inf),[2]; [9],68.6 ng·h/mL
same,AUC(0-inf),[2]; [11],55.5 ng·h/mL
same,AUC(0-t),"[2]; GLSM, plasma, Cocktail (day 1)",56.7 ng·h/mL
same,AUC(0-t),[2]; [7],48.8 ng·h/mL
same,AUC(0-t),[2]; [8],61.8 ng·h/mL
same,AUC(0-t),[2]; [10],52.8 ng·h/mL
same,AUC(0-t),[2]; [9],56.1 ng·h/mL
same,AUC(0-t),[2]; [11],48.4 ng·h/mL
same,Cmax,"[2]; GLSM, plasma, Cocktail (day 1)",4.3 ng/mL
same,Cmax,[2]; [9],4.71 ng/mL
same,Cmax,[2]; [11],4.49 ng/mL
same,Vd/F,[2]; [8],5400 ± 3950 L
same,Vd/F,[2]; [10],5420 ± 3510 L
same,Vd/F,[2]; [9],4310 L
same,Vd/F,[2]; [11],3490 L
same,half-life,[2]; [8],22.5 ± 11.4 h
same,"CL/F, Mean ± SD","[2]; plasma, Cocktail (day 1)",163 ± 68.5 L/h
same,"CL/F, Median (range)","[2]; plasma, Cocktail (day 1)",146 (94.5–366) L/h
same,"tmax, Median (range)","[2]; plasma, Cocktail (day 1)",4.0 (1.0–6.0) h
same,"CL/F, Mean ± SD",[2]; [12],186 ± 62.4 L/h
same,"CL/F, Median (range)",[2]; [12],180 (91.6–314) L/h
same,"tmax, Median (range)",[2]; [12],3.0 (0.5–6.0) h
same,increase in Cmax (GLSM ratio),BCRP; [16],6%
same,reduction in AUClast (GLSM ratio),BCRP; [16],14%
same,"AUCinf, GLSM ratio (95% CI)",BCRP; [17],89.3 (80.0–99.8)
same,"AUClast, GLSM ratio (95% CI)",BCRP; [17],86.1 (77.5–95.7)
same,"Cmax, GLSM ratio (95% CI)","BCRP; rosuvastatin plasma, enzalutamide + cocktail (day 64) vs cocktail (day 1)",106.3 (94.7–119.3)
same,TEAEs considered related to the drug,Safety and tolerability,no TEAEs were considered to be related
